Measurements: ChEMBL document CHEMBL1136685, “Structure-activity relationship of cyclic peptide penta-c[Asp-His(6)-DPhe(7)-Arg(8)-Trp(9)-Lys]-NH(2) at the human melanocortin-1 and -4 receptors: His(6) substitution” (Bioorg Med Chem Lett, 2003)

Experiments:
Melanocortin receptor 5 = Melanocortin receptor 5 (Homo sapiens, UniProt P33032); experiment: Agonistic activity against human melanocortin receptor (hMC5R) for cAMP accumulation; format: functional
[1] = biological target: T1, Melanocyte-stimulating hormone receptor (Homo sapiens, UniProt Q01726); experiment: Agonist activity at human melanocortin receptor (hMC1R).; format: functional
Target sequence in this assay (Q01726 whole entry): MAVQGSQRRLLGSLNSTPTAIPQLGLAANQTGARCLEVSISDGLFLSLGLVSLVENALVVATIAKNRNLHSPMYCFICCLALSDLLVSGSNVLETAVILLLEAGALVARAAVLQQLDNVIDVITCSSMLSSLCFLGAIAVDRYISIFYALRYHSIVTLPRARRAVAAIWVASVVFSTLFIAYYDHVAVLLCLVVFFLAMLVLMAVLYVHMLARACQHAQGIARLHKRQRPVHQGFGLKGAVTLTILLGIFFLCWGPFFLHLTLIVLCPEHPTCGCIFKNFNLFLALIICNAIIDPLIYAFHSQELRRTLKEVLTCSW

Melanocortin receptor 3 = Melanocortin receptor 3 (Homo sapiens, UniProt P41968); experiment: Agonistic activity against human melanocortin receptor (hMC3R) for cAMP accumulation; format: functional
Melanocortin receptor 4 [2] = biological target: T2, Melanocortin receptor 4 (Homo sapiens, UniProt P32245); experiment: Agonist activity at human melanocortin receptor (hMC4R).; format: functional
Melanocortin receptor 4 [3] = experiment: (§1) Agonistic activity against human melanocortin receptor (hMC1R) for cAMP accumulation; format: functional
[4] = biological target: T1, Melanocyte-stimulating hormone receptor; experiment: as §1; format: functional
Target sequence in this assay (Q01726 whole entry, looked up): as the sequence (Q01726 whole entry) above

[5] = biological target: T1, Melanocyte-stimulating hormone receptor; experiment: Binding affinity towards human melanocortin receptor (hMC1R) using NDP-MSH as radioligand
Target sequence in this assay (Q01726 whole entry): as above

Melanocortin receptor 4 [6] = biological target: T2, Melanocortin receptor 4; experiment: Binding affinity towards human melanocortin receptor (hMC4R) using NDP-MSH as radioligand
Melanocortin receptor 4 [7] = biological target: T2, Melanocortin receptor 4; experiment: Agonistic activity against human melanocortin receptor (hMC4R) for cAMP accumulation; format: functional

T2 sequence (P32245 whole entry): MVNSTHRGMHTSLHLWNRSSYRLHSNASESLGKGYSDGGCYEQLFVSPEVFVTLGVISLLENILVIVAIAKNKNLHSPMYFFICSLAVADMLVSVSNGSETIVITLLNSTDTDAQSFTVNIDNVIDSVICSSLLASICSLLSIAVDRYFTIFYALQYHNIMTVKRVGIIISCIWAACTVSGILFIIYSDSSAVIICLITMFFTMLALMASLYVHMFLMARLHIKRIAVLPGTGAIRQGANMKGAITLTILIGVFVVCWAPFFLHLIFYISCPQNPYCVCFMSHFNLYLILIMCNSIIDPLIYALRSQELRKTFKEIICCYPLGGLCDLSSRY
Chain of Melanocortin receptor 5 (P33032 whole entry): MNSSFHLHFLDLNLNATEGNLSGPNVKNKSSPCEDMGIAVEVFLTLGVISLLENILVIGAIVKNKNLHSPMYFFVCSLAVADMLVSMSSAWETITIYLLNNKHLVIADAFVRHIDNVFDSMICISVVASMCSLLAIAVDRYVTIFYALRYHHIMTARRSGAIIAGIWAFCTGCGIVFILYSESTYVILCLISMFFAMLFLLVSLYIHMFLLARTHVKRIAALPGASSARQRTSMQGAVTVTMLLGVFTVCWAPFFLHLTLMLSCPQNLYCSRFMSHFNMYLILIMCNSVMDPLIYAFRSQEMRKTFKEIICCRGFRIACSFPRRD
Chain of Melanocortin receptor 3 (P41968 whole entry): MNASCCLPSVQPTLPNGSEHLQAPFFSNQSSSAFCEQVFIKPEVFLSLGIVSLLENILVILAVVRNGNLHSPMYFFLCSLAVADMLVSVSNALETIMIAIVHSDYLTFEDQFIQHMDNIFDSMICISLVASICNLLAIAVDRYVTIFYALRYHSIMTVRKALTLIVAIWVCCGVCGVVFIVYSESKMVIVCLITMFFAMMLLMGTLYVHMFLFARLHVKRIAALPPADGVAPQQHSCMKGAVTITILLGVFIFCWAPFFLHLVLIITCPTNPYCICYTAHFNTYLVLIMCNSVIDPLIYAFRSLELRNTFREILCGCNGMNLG

Structure (SMILES) | EC50 (Melanocortin receptor 4 [2]) [nM] | IC50 [5] [nM] | IC50 (Melanocortin receptor 4 [6]) [nM] | EC50 (Melanocortin receptor 4 [7]) [nM] | also measured
CCCCC(=O)N[C@H]1CC(=O)NCCCC[C@@H](C(N)=O)NC(=O)[C@H](Cc2c[nH]c3ccccc23)NC(=O)[C@H](CCCNC(=N)N)NC(=O)[C@@H](Cc2ccccc2)NC(=O)[C@H](Cc2cnc[nH]2)NC1=O | 0.9 |  |  |  | EC50 (Melanocortin receptor 5): 33 nM; EC50 [1]: 0.4 nM; EC50 (Melanocortin receptor 3): 6 nM
CCCCC(=O)N[C@H]1CC(=O)NCCCC[C@@H](C(N)=O)NC(=O)[C@H](Cc2c[nH]c3ccccc23)NC(=O)[C@H](CCCNC(=N)N)NC(=O)[C@@H](Cc2ccccc2)NC(=O)[C@H](Cc2ccc(-c3ccccc3)cc2)NC1=O | 6 |  |  |  | EC50 (Melanocortin receptor 4 [3]): 53 nM
CCCCC(=O)N[C@H]1CC(=O)NCCCC[C@@H](C(N)=O)NC(=O)[C@H](Cc2c[nH]c3ccccc23)NC(=O)[C@H](CCCN=C(N)N)NC(=O)[C@@H](Cc2ccccc2)NC(=O)[C@@H]2c3ccccc3CN2C1=O (single isomer, unassigned; form 1) | 118 |  |  |  | EC50 [4]: 56 nM
CCCCC(=O)N[C@H]1CC(=O)NCCCC[C@@H](C(N)=O)NC(=O)[C@H](Cc2c[nH]c3ccccc23)NC(=O)[C@H](CCCNC(N)=O)NC(=O)[C@@H](Cc2ccccc2)NC(=O)C2(CCc3c(Cl)cccc3C2)NC1=O (single isomer, unassigned; form 1) |  | 13100 | 410 | 48 | 
CCCCC(=O)N[C@H]1CC(=O)NCCCC[C@@H](C(N)=O)NC(=O)[C@H](Cc2c[nH]c3ccccc23)NC(=O)[C@H](CCCNC(N)=O)NC(=O)[C@@H](Cc2ccccc2)NC(=O)C2(CCc3c(Cl)cccc3C2)NC1=O (single isomer, unassigned; form 2) |  | 14800 | 675 | 105 | 
